Source: patent publication US12685311B2, “Environmentally friendly biocidal quaternized amine compound” (Baker Hughes Oilfield Operations LLC, priority 2023, dated 2026)

What follows are compounds tested on microbial population (oilfield produced waters containing a range of microbes) (assay: ATP quantification of oilfield produced waters after biocide treatment). Details: 400 ppm, after four hours, oilfield produced waters amended with nutrients, versus untreated control.
Format: cell-based
Description: Laboratory tests were performed to observe the environmentally friendly biocide of one embodiment for its ability to reduce microbial populations. The performance of the environmentally friendly biocide was further compared with that of two non-biodegradable biocidal quaternary amine compounds: alkyldimethylbenxylammonium chloride (ADBAC) and didecyldimethylammonium chloride (DDAC).
Test bottles were prepared with oilfield produced waters amended with nutrients containing a range of microbes. These bottles were treated with 400 ppm of either di(dimethyl(alkyl)ammonium chloride) ethanoyloxy-oxo, ADBAC, or DDAC, with one test bottle left as an untreated control. After four hours, ATP quantification and serial dilution using Modified Postgate's B media were performed for the various test bottles.

Row | Compound | reduction of the microbial population via ATP [%]
1 | CCCCCCCCCC[N+](C)(C)CCCCCCCCCC.[Cl-] [DDAC, didecyldimethylammonium chloride] | 99.06
2 | alkyldimethylbenxylammonium chloride [ADBAC] | 99.16
3 | di(dimethyl(alkyl)ammonium chloride) ethanoyloxy-oxo | 96.79
